Like-named read-outs stand apart in the source and are kept apart here.
Assays:
LNcap cells = assay: Inhibitory effect on proliferation of LNcap cells (CCK-8, 72 h); assay type: cell-based; conditions: Homo sapiens
Experimental: A dish of LNcap cells (human prostate cancer cells with PTEN deficiency) growing at log phase and in good conditions were taken and digested for 3 min by using 1 mL of pancreatin, then the mixture was added with 4 mL of complete culture medium to terminate digestion, and the cells were added to a centrifuge tube. 20 μL of cells were taken and counted, the required number of cells (mL) was pipetted and centrifuged at 1200 rpm for 5 min, the supernatant was discarded, and an appropriate amount of plating medium (RPMI medium+5% FBS+1% sodium pyruvate+1% glutamine) was added to adjust the cell density to 3×10^4 cells/mL. The cells were seeded on a 96-well plate at 100 μL/well using a multi-channel pipette and cultured in a cell incubator at 37° C., 5% CO2 and saturated humidity. After incubation overnight, compounds were loaded using a nanoliter pipettor, 2 duplicate wells were set for each concentration, and cells without compound were used as negative controls. After 72 h, CCK-8 was added at 10 μL/well for incubation for 4 h, then absorbance was measured at 450 nm with an Envision plate reader, and inhibition rate was calculated. Inhibition rate (%)=(mean value of negative control group−mean value of experimental group)/(mean value of negative control group−mean value of blank group)×100%. A dose-response curve was fitted by four-parameter analysis, with the logarithm of compound concentration as abscissa and inhibition rate as ordinate, so that IC50 was calculated.

AKT1 (S473) = target: T1, AKT1 (S473) (Homo sapiens, UniProt P31749); assay: Inhibitory effect on phosphorylation of LNcap cells AKT1 (S473); assay type: cell-based; conditions: 1 h incubation
T1 construct: endogenous in cells; host or cells: LNcap cells
Experimental: LNcap cells AKT1 (S473) growing at log phase were taken, digested with 1 mL of pancreatin for 3 min, and added with 4 mL of complete medium to terminate digestion. The cells were added to a centrifuge tube. 20 μL of cells were taken and counted, the required number of cells (mL) was taken and centrifuged at 1200 rpm for 5 min, and a plating medium (2% FBS+phenol-free red 1640 base medium+1% sodium pyruvate+1% glutamine) was added to adjust the cell density to about 1×10E6 cells/mL. The cells were plated (96 wells) at the above cell density (100 μL/well), and cultured in a cell incubator at 37° C., 5% CO2 overnight; the next day, according to the plate distribution, the corresponding compound was sprayed using a nanoliter pipettor and incubated for 1 h at 37° C. in a cell incubator containing 5% CO2; the supernatant was discarded, and the plate was added with 40 μL of lysis buffer (1×) containing blocking buffer and incubated by shaking at room temperature for 30 min. After the mixture was mixed, 16 μL of lysate was transferred to another 384-well small-volume white plate. The plate was added with 4 μL of pre-mixed antibody (v/v) in assay buffer, covered, centrifuged to mix well, and incubated overnight at room temperature. The 665 nm/620 nm signal value was detected using a PE Envision multi-functional microplate reader, and IC50 was calculated by four-parameter fitting.

[1] = LNcap cells, CCK-8, read-out: LNcap cells IC50
[2] = LNCaP, read-out: LNcap cells IC50

T1 sequence (P31749 whole entry): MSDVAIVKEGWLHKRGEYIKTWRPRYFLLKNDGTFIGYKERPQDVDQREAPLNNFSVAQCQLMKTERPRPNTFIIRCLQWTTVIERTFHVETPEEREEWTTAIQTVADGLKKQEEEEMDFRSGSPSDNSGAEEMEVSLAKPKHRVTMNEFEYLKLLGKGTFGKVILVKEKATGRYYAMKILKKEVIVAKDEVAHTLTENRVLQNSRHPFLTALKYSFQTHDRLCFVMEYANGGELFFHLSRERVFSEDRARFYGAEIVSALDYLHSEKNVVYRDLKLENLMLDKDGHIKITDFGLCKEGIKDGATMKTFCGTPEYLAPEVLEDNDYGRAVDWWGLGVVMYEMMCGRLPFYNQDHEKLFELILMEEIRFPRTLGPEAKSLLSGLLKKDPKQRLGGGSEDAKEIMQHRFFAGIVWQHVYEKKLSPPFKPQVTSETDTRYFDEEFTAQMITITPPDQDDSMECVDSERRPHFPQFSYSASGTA

IC50 (LNcap cells; [1])	IC50 (AKT1 (S473))	SMILES	IC50 (LNcap cells; [2])
0.02 µM		CC(=O)N(C)C1CCCN(c2cccc(-c3ccc4nc(-c5cccnc5N)n(-c5ccc(C6(N)CCC6)cc5)c4n3)c2)C1 (centres unmarked) [Compound 27]	
		CC(=O)N(C)[C@@H]1CCN(c2cccc(-c3ccc4nc(-c5cccnc5N)n(-c5ccc(C6(N)CCC6)cc5)c4n3)c2)C1 [Compound 24]	0.041 µM
		Nc1ncccc1-c1nc2ccc(-c3cccc(N4CC5COCC5C4)c3)nc2n1-c1ccc(C2(N)CCC2)cc1 (centres unmarked) [Compound 18]	0.018 µM
0.019 µM		CC(=O)N1C[C@@H]2CN(c3cccc(-c4ccc5nc(-c6cccnc6N)n(-c6ccc(C7(N)CCC7)cc6)c5n4)c3F)C[C@@H]2C1 [Compound 40]	
0.0069 µM		CC1CC(N2CCCC2=O)CCN1c1cccc(-c2ccc3nc(-c4cccnc4N)n(-c4ccc(C5(N)CCC5)cc4)c3n2)c1 (centres unmarked) [Compound 48]	
0.0043 µM	0.011 µM	CN(C1CCN(c2cccc(-c3ccc4nc(-c5cccnc5N)n(-c5ccc(C6(N)CCC6)cc5)c4n3)c2F)CC1)S(C)(=O)=O [Compound 32]	
0.034 µM	0.017 µM	C=CC(=O)NCc1cccc(-c2ccc3nc(-c4cccnc4N)n(-c4ccc(C5(N)CCC5)cc4)c3n2)c1 [Compound 2]	
		CC(=O)N1CC[C@@H](N(C)c2cccc(-c3ccc4nc(-c5cccnc5N)n(-c5ccc(C6(N)CCC6)cc5)c4n3)c2)C1 [Compound 7]	0.048 µM
0.016 µM	0.034 µM	CC#CC(=O)N1CCCC1c1cccc(-c2ccc3nc(-c4cccnc4N)n(-c4ccc(C5(N)CCC5)cc4)c3n2)c1 (centres unmarked) [Compound 1]	
0.0029 µM	0.025 µM	Nc1ncccc1-c1nc2ccc(-c3cccc(N4CCC(N5CCC(F)(F)C5=O)CC4)c3)nc2n1-c1ccc(C2(N)CCC2)cc1 [Compound 34]	
0.01 µM	0.041 µM	Nc1ncccc1-c1nc2ccc(-c3cccc(N4CCC(N5CCCCS5(=O)=O)CC4)c3F)nc2n1-c1ccc(C2(N)CCC2)cc1 [Compound 41]	
0.011 µM	0.013 µM	[2H]C1([2H])CC(N2CCCC2=O)CC([2H])([2H])N1c1cccc(-c2ccc3nc(-c4cccnc4N)n(-c4ccc(C5(N)CCC5)cc4)c3n2)c1F [Compound 38]	
0.012 µM	0.017 µM	CS(=O)(=O)N1CC2(CN(c3cccc(-c4ccc5nc(-c6cccnc6N)n(-c6ccc(C7(N)CCC7)cc6)c5n4)c3)C2)C1 [Compound 17]	
0.014 µM		CC(=O)N1CC2CN(c3cccc(-c4ccc5nc(-c6cccnc6N)n(-c6ccc(C7(N)CCC7)cc6)c5n4)c3)CC21 (centres unmarked) [Compound 26]	
		CC(=O)N(C)[C@H]1CCN(c2cccc(-c3ccc4nc(-c5cccnc5N)n(-c5ccc(C6(N)CCC6)cc5)c4n3)c2)C1 [Compound 31]	0.028 µM
		[2H]C([2H])([2H])N(C(C)=O)C1CCN(c2cccc(-c3ccc4nc(-c5cccnc5N)n(-c5ccc(C6(N)CCC6)cc5)c4n3)c2)CC1 [Compound 54]	0.0022 µM

IC50 (LNcap cells; [1])	IC50 (AKT1 (S473))	SMILES	IC50 (LNcap cells; [2])
0.003 µM	0.023 µM	Nc1ncccc1-c1nc2ccc(-c3cccc(N4CCC(N5CCCC5=O)CC4)c3)nc2n1-c1ccc(C2(N)CCC2)cc1 [Compound 21]	
0.0075 µM		CC1CN(c2cccc(-c3ccc4nc(-c5cccnc5N)n(-c5ccc(C6(N)CCC6)cc5)c4n3)c2F)CCC1N1CCCC1=O (centres unmarked) [Compound 46]	
0.015 µM		Nc1ncccc1-c1nc2ccc(-c3cccc(N4CCCS4(=O)=O)c3)nc2n1-c1ccc(C2(N)CCC2)cc1 [Compound 20]	
0.0076 µM	0.011 µM	CC(=O)N1CCC2(C1)CN(c1cccc(-c3ccc4nc(-c5cccnc5N)n(-c5ccc(C6(N)CCC6)cc5)c4n3)c1F)C2 [Compound 37]	
0.012 µM	0.019 µM	Nc1ncccc1-c1nc2ccc(-c3cccc(N4CCN(C5COC5)CC4)c3)nc2n1-c1ccc(C2(N)CCC2)cc1 [Compound 11]	
0.046 µM		CC(=O)N(C)CCN(C)c1cccc(-c2ccc3nc(-c4cccnc4N)n(-c4ccc(C5(N)CCC5)cc4)c3n2)c1 [Compound 29]	
0.021 µM		Nc1ncccc1-c1nc2ccc(-c3cccc(N4CCC(N5CCCS5(=O)=O)CC4)c3F)nc2n1-c1ccc(C2(N)CCC2)cc1 [Compound 42]	
0.011 µM	0.017 µM	CN1CC2(CC1=O)CN(c1cccc(-c3ccc4nc(-c5cccnc5N)n(-c5ccc(C6(N)CCC6)cc5)c4n3)c1)C2 [Compound 33]	
0.004 µM		CN1CC2(CC1=O)CN(c1cccc(-c3ccc4nc(-c5cccnc5N)n(-c5ccc(C6(N)CCC6)cc5)c4n3)c1F)C2 [Compound 49]	
0.0087 µM	0.019 µM	CC(=O)N1CC2(C1)CN(c1cccc(-c3ccc4nc(-c5cccnc5N)n(-c5ccc(C6(N)CCC6)cc5)c4n3)c1)C2 [Compound 16]	
0.0021 µM	0.0071 µM	[2H]C([2H])([2H])N(C(C)=O)C1CCN(c2cccc(-c3ccc4nc(-c5cccnc5N)n(-c5ccc(C6(N)CCC6)cc5)c4n3)c2F)CC1 [Compound 55]	
0.014 µM		CC(=O)N1CC2(CCN(c3cccc(-c4ccc5nc(-c6cccnc6N)n(-c6ccc(C7(N)CCC7)cc6)c5n4)c3F)C2)C1 [Compound 36]	
0.024 µM	0.016 µM	Nc1ncccc1-c1nc2ccc(-c3cccc(N4CCN5C(=O)CCC5C4)c3)nc2n1-c1ccc(C2(N)CCC2)cc1 (centres unmarked) [Compound 9]	
0.005 µM	0.012 µM	CC(=O)N1CCC2(CC1)CN(c1cccc(-c3ccc4nc(-c5cccnc5N)n(-c5ccc(C6(N)CCC6)cc5)c4n3)c1F)C2 [Compound 35]	
		Nc1ncccc1-c1nc2ccc(-c3cccc(N4CC5(COC5)C4)c3)nc2n1-c1ccc(C2(N)CCC2)cc1 [Compound 13]	0.02 µM

SMILES	IC50 (LNcap cells; [1])	IC50 (AKT1 (S473))	IC50 (LNcap cells; [2])
Nc1ncccc1-c1nc2ccc(-c3cccc(N4CC5(CCOCC5)C4)c3)nc2n1-c1ccc(C2(N)CCC2)cc1 [Compound 6]		0.054 µM	0.015 µM
CC1COC(=O)N1C1CCN(c2cccc(-c3ccc4nc(-c5cccnc5N)n(-c5ccc(C6(N)CCC6)cc5)c4n3)c2)CC1 (centres unmarked) [Compound 39]		0.042 µM	0.011 µM
C=CC(=O)Nc1ccc(-c2ccc3nc(-c4cccnc4N)n(-c4ccc(C5(N)CCC5)cc4)c3n2)cc1 [Compound 3]		0.02 µM	0.0065 µM
CC(=O)N(C)[C@@H]1C[C@H]2CC[C@@H](C1)N2c1cccc(-c2ccc3nc(-c4cccnc4N)n(-c4ccc(C5(N)CCC5)cc4)c3n2)c1 [Compound 43]	0.047 µM		
CC(=O)N1CC2CC(C1)N2c1cccc(-c2ccc3nc(-c4cccnc4N)n(-c4ccc(C5(N)CCC5)cc4)c3n2)c1F [Compound 47]	0.081 µM		
CC1CN(C2COC2)CCN1c1cccc(-c2ccc3nc(-c4cccnc4N)n(-c4ccc(C5(N)CCC5)cc4)c3n2)c1 (centres unmarked) [Compound 10]		0.047 µM	0.021 µM

— US20230357242A1, “COMPOUND AS AKT KINASE INHIBITOR” (CHIA TAI TIANQING PHARMACEUTICAL GROUP CO., LTD., priority 2020, published 2023)
